Read-outs that look alike come from different tables or passages of the source.
Test system: HBV
Assay: Viral load production from HepAD38 cells, qPCR of the HBV core sequence in supernatant
Type: cell-based
Settings: HepAD38 cells, 5 days, HBV DNA in supernatant by qPCR
Description: HepAD38 cells grown in a T-150 flask (Corning, cat#: 430825) with Growth Medium (DMEM/F12 (1:1) (Hyclone, cat#: SH30023.02), 1X Pen/Strep (Invitrogen, cat#: 15140-122), 10% FBS (Tissue Culture Biologics, cat#: 101), 250 µg/mL G418 (Alfa Aesar, cat#: J62671), 1 µg/mL Tetracycline (Teknova, cat#: T3320)) were detached with 0.25% trypsin-EDTA (Invitrogen, cat#: 25200-056). Tetracycline-free treatment medium (15 mL DMEM/F12 (1:1) 1× Pen/step, with 2% FBS, Tet-system approved (Clontech, cat#: 631106) were then added to mix, transferred into a 50 ml conical tube (Falcon, cat#: 21008-918,) and spun at 1300 rpm for 5 min. Pelleted cells were then re-suspended/washed with 50 mL of 1X DPBS (Invitrogen, cat#: 14190-136) 2 times and 50 mL treatment medium twice. HepAD38 cells were then re-suspended with 10 mL of treatment medium, syringed and counted. Wells of 96-well clear bottom TC plate (Corning, cat#: 3904,) were seeded at 50.000 cells/well in 180 µL of treatment medium, and 20 µL of either 10% DMSO (Sigma, cat#: D4540) as controls or a 10X solution of test compounds in 10% DMSO in treatment media was added for a final compound concentration starting at 10 µM, and plates were incubated in 5% CO2 incubator at 37° C. for 5 days.
Subsequently viral load production was assayed by quantitative PCR (qPCR) of the HBV core sequence. PCR reaction mixture containing forward primers HBV-f 5′-CTGTGCCTTGGGTGGCTTT-3′ (IDT DNA), Reverse primers HBV-r 5′-[…]-3′ (IDT DNA), Fluorescent TaqMan^tm Probes HBV-probe 5′-FAM/AGCTCCAAA/ZEN/[…]/3IABkFQ-3′ (IDT DNA), 10 µL/well of PerfeCTa® qPCR ToughMix® (Quanta Biosciences, Cat#: 95114-05 K), and 6 µL/well of DEPC water (Alfa Aesar, cat#: J62087) was prepared. Four µL of supernatant was added to 16 µL of the reaction mixture in a qPCR plate (Applied Biosytems, Cat#: 4309849), sealed with a film (Applied Biosystems, Cat#: 4311971), centrifuged for a few seconds, and subsequently run on an Applied Biosystems VIIA7. The PCR mixture was incubated at 45° C. for 5 min, then 95° C. for 10 min, followed by 40 cycles of 10 seconds at 95° C. and 20 seconds at 60° C. Viral load was quantified against known HBV DNA standards by using ViiA™ 7 Software. Viral load in the supernatant from wells with treated cells were compared against viral load in supernatant from DMSO control wells (≥ 3 per plate). Cell viability assay was performed with CellTiter-Glo Luminescent Cell Viability Assay (Promega, cat#: G7573) with modification. Mixed appropriate amount of CellTiter-Glo (CTG) 1X DPBS in a 1:1 ratio, added 100 uL of the mixture to each well followed completely removal of all supernatant in each well without touching cell surface. Incubated the plate at room temperature for 10 min on an orbital shaker, and then read the plate with a plate reader (TECAN M1000 or Envision). EC50 or CC50 values were calculated through curve-fitting of the four-parameter nonlinear-logistic-regression model (GraphPad Prism or Dotmatics). CC50 values were all >10 µM.

[1] = Hepatitis B virus, HePAD38, 120 h, Table 1 ranges, read-out: Activity (viral load lowering EC50)

Structure (SMILES) | EC50 [1] [µM] | other results
Cn1nc(C2CC3CC(N4CCC(F)(C(N)=O)CC4)CC3C2)c(C(=O)Nc2ccc(F)c(Cl)c2)c1N (stereo not shown) [Example 185] | 0.01 to 0.05 | –
Cn1nc(C2CC3CC(CNC(=O)c4ccns4)CC3C2)c(C(=O)Nc2ccc(F)c(Cl)c2)c1N (stereo not shown) [Example 60, N-((5-(5-Amino-4-((3-chloro-4-fluorophenyl)carbamoyl)-1-methyl-1H-pyrazol-3-yl)octahydropentalen-2-yl)methyl)isothiazole-5-carboxamide] | < 0.01 | –
Cn1nc(C2CC3CN(C(=O)NCC4CC(F)(F)C4)CC3C2)c(C(=O)Nc2ccc(F)c(Cl)c2)c1N (stereo not shown) [Example 126, 5-(5-Amino-4-((3-chloro-4-fluorophenyl)carbamoyl)-1-methyl-1H-pyrazol-3-yl)-N-((3,3-difluorocyclobutyl)methyl)-hexahydrocyclopenta[c]pyrrole-2(1H)-carboxamide] | 0.05 to 0.5 | –
Cn1nc(C2CC3CC(O)(c4[nH]nc(C(F)(F)F)c4Br)CC3C2)c(C(=O)Nc2ccc(F)c(Cl)c2)c1N (stereo not shown) [Example 224] | 0.01 to 0.05 | –
Cn1nc(C2CC3CC(O)(c4cc([N+](=O)[O-])nn4C4CC4)CC3C2)c(C(=O)Nc2ccc(F)c(Cl)c2)c1N (stereo not shown) [Example 218] | < 0.01 | –
C=C(n1cccn1)C1(O)CC2CC(c3nn(C)c(N)c3C(=O)Nc3ccc(F)c(Cl)c3)CC2C1 (stereo not shown) [Example 198] | < 0.01 | –
Cn1nc(C2CC3CC(O)(c4cccnn4)CC3C2)c(C(=O)Nc2ccc(F)c(Cl)c2)c1N (stereo not shown) [Example 190] | < 0.01 | –
CC(C)n1nc([N+](=O)[O-])cc1C1(O)CC2CC(c3nn(C)c(N)c3C(=O)Nc3ccc(F)c(Cl)c3)CC2C1 (stereo not shown) [Example 206] | < 0.01 | –
Cn1nc(C2CC3CC(CNC(=O)C4CCC(F)(F)CC4)CC3C2)c(C(=O)Nc2ccc(F)c(Cl)c2)c1N (stereo not shown) [Example 53, 5-Amino-N-(3-chloro-4-fluorophenyl)-3-(5-((4,4-difluorocyclohexane-1-carboxamido)methyl)octahydropentalen-2-yl)-1-methyl-1H-pyrazole-4-carboxamide] | < 0.01 | –
Cn1nc(C2CC3CC(CNC(=O)C4CCOCC4)CC3C2)c(C(=O)Nc2ccc(F)c(Cl)c2)c1N (stereo not shown) [Example 50, 5-Amino-N-(3-chloro-4-fluorophenyl)-1-methyl-3-(5-((tetrahydro-2H-pyran-4-carboxamido)methyl)octahydropentalen-2-yl)-1H-pyrazole-4-carboxamide] | < 0.01 | –
Cn1nc(C2CC3CC(O)(c4cccnc4)CC3C2)c(C(=O)Nc2ccc(F)c(Cl)c2)c1N (stereo not shown) [Example 15, 5-Amino-N-(3-chloro-4-fluorophenyl)-3-(5-hydroxy-5-(pyridin-3-yl)octahydropentalen-2-yl)-1-methyl-1H-pyrazole-4-carboxamide] | < 0.01 | –
Cn1nc(C2CC3CC(CNC(=O)CCC(C)(C)C)CC3C2)c(C(=O)Nc2ccc(F)c(Cl)c2)c1N (stereo not shown) [Example 56, 5-Amino-N-(3-chloro-4-fluorophenyl)-3-(5-((4,4-dimethylpentanamido)methyl)octahydropentalen-2-yl)-1-methyl-1H-pyrazole-4-carboxamide] | < 0.01 | –
Cn1nc(C2CC3CC(O)(c4cn[nH]c4)CC3C2)c(C(=O)Nc2ccc(F)c(Cl)c2)c1N (stereo not shown) [Example 28, 5-Amino-N-(3-chloro-4-fluorophenyl)-3-(5-hydroxy-5-(1H-pyrazol-4-yl)octahydropentalen-2-yl)-1-methyl-1H-pyrazole-4-carboxamide] | 0.01 to 0.05 | –
Cn1nc(C2CC3CC(O)(c4ncco4)CC3C2)c(C(=O)Nc2ccc(F)c(Cl)c2)c1N (stereo not shown) [Example 21, 5-Amino-N-(3-chloro-4-fluorophenyl)-3-(5-hydroxy-5-(oxazol-2-yl)octahydropentalen-2-yl)-1-methyl-1H-pyrazole-4-carboxamide] | < 0.01 | –
Cn1nc(C2CC3CC(O)(c4cc(N)nn4C4CC4)CC3C2)c(C(=O)Nc2ccc(F)c(Cl)c2)c1N (stereo not shown) [Example 215] | < 0.01 | –
CC(NC(=O)N1CC2CC(c3nn(C)c(N)c3C(=O)Nc3ccc(F)c(Cl)c3)CC2C1)C(F)(F)F (single isomer, unassigned) [Example 128, 5-(5-Amino-4-((3-chloro-4-fluorophenyl)carbamoyl)-1-methyl-1H-pyrazol-3-yl)-N-(1,1,1-trifluoropropan-2-yl)hexahydrocyclopenta[c]pyrrole-2(1H)-carboxamide] | 0.05 to 0.5 | –
Cn1cc(C2(O)CC3CC(c4nn(C)c(N)c4C(=O)Nc4ccc(F)c(Cl)c4)CC3C2)cn1 (stereo not shown) [Example 146] | < 0.01 | –
Cn1nc(C2CC3CC(O)(Cc4ncco4)CC3C2)c(C(=O)Nc2ccc(F)c(Cl)c2)c1N (stereo not shown) [Example 181] | < 0.01 | –
CN(C)C(=O)NCC1CC2CC(c3nn(C)c(N)c3C(=O)Nc3ccc(F)c(Cl)c3)CC2C1 (single isomer, unassigned) [Example 41, 5-Amino-N-(3-chloro-4-fluorophenyl)-3-(5-((3,3-dimethylureido)methyl)octahydropentalen-2-yl)-1-methyl-1H-pyrazole-4-carboxamide] | < 0.01 | –
Cn1nc(C2CC3CC(O)(c4ccc(F)cc4)CC3C2)c(C(=O)Nc2ccc(F)c(Cl)c2)c1N (stereo not shown) [Example 4, 5-Amino-N-(3-chloro-4-fluorophenyl)-3-(5-(4-fluorophenyl)-5-hydroxyoctahydropentalen-2-yl)-1-methyl-1H-pyrazole-4-carboxamide] | 0.01 to 0.05 | –
Cn1nc(C2CC3CC(O)(CNc4ncc(C(F)F)cn4)CC3C2)c(C(=O)Nc2ccc(F)c(Cl)c2)c1N (single isomer, unassigned) [Example 202B] | – | EC50 (Table 1 ranges, read-out: Activity (viral load lowering EC50)): 0.05 to 0.5 µM
Cn1cc(C(F)(F)F)c(C2(O)CC3CC(c4nn(C)c(N)c4C(=O)Nc4ccc(F)c(Cl)c4)CC3C2)n1 (stereo not shown) [Example 219] | < 0.01 | –
Cn1nc(C2CC3CC(O)(c4ccncc4F)CC3C2)c(C(=O)Nc2ccc(F)c(Cl)c2)c1N (stereo not shown) [Example 169] | < 0.01 | –
Cn1nc(C2CC3CC(O)(CS(=O)(=O)c4cccc(F)c4)CC3C2)c(C(=O)Nc2ccc(F)c(Cl)c2)c1N (stereo not shown) [Example 37, 5-Amino-N-(3-chloro-4-fluorophenyl)-3-(5-(((3-fluorophenyl)sulfonyl)methyl)-5-hydroxyoctahydropentalen-2-yl)-1-methyl-1H-pyrazole-4-carboxamide] | < 0.01 | –
CC(C)C(=O)NCC1CC2CC(c3nn(C)c(N)c3C(=O)Nc3ccc(F)c(Cl)c3)CC2C1 (stereo not shown) [Example 45, 5-Amino-N-(3-chloro-4-fluorophenyl)-3-(5-(isobutyramidomethyl)octahydropentalen-2-yl)-1-methyl-1H-pyrazole-4-carboxamide] | < 0.01 | –
C#CCCC(=O)NCC1CC2CC(c3nn(C)c(N)c3C(=O)Nc3ccc(F)c(Cl)c3)CC2C1 (stereo not shown) [Example 52, 5-Amino-N-(3-chloro-4-fluorophenyl)-1-methyl-3-(5-(pent-4-ynamidomethyl)octahydropentalen-2-yl)-1H-pyrazole-4-carboxamide] | < 0.01 | –
CC(C(F)(F)F)S(=O)(=O)NCC1CC2CC(c3nn(C)c(N)c3C(=O)Nc3ccc(F)c(Cl)c3)CC2C1 (stereo not shown) [Example 98, 5-Amino-N-(3-chloro-4-fluorophenyl)-1-methyl-3-(5-(((2,2,2-trifluoro-1-methylethyl)sulfonamido)methyl)octahydropentalen-2-yl)-1H-pyrazole-4-carboxamide] | 0.01 to 0.05 | –
Cn1nc(C2CC3CC(=O)C(c4ccccc4)C3C2)c(C(=O)Nc2ccc(F)c(Cl)c2)c1N (stereo not shown) [Example 140, 5-Amino-N-(3-chloro-4-fluorophenyl)-1-methyl-3-(5-oxo-4-phenyloctahydropentalen-2-yl)-1H-pyrazole-4-carboxamide] | – | EC50 (Hepatitis B virus, HePAD38, 120 h, Table 2 ranges, read-out: VL HepAD38 EC50 range): < 0.1 µM

From US20230295096A1, “PYRAZOLE CARBOXAMIDE COMPOUNDS FOR TREATMENT OF HBV” (ASSEMBLY BIOSCIENCES, INC., priority 2020, published 2023)
